Assay [1] concerns Mus musculus. In words: Median Survival days of mice infected with L1210 leukemia cells at dose 80 mg/kg relative to that of 9 days for control. In kind it is functional.
Assay [2] is filed under the species Mus musculus. Kind of assay: Compound was tested against weight change in mice with L1210 leukemia cells on 10 th Day at Dose 80 mg / kg. The conditions noted are these: at 80 mg/kg.
Assay [3] is filed under the species Homo sapiens. In words: Compound was tested for its inhibitory concentration against human leukemic lymphoblasts (CEM Cells) and a resistant subline (CEM / MTX). It is filed as functional. The conditions noted are these: CCRF-CEM.
In assay [4] the test system is Mus musculus. Kind of assay: Median Survival days of mice infected with L1210 leukemia cells at dose 40 mg/kg relative to that of 9 days for control. It is filed as functional.
Assay [5] deals with Mus musculus. In words: Increase in life span of mice with L1210 leukemia cells at a dose of 80 mg/kg. It is filed as functional.
The subject of assay [6] is L1210. In words: Compound was tested for its inhibitory concentration to inhibit the growth of wild type L1210 cells. In kind it is functional, cell-based, Mus musculus.
For assay [7], the system named is Mus musculus. Kind of assay: Increase in life span of mice with L1210 leukemia cells at a dose of 20 mg/kg. It is filed as functional.
Assay [8] relates to Mus musculus. Kind of assay: Median Survival days of mice infected with L1210 leukemia cells at dose 20 mg/kg relative to that of 9 days for control. It is filed as functional.
Assay [9] has as its target T1, Dihydrofolate reductase (Mus musculus) (UniProt P00375).
T1 sequence (whole entry): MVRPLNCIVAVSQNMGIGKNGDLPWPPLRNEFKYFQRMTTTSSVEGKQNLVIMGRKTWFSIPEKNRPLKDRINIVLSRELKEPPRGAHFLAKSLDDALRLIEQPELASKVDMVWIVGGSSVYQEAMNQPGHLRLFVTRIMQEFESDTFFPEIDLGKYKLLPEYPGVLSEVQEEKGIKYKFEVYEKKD
The following applies: L1210.
Description: Compound was tested for inhibition of the enzyme DiHydroFolate Reductase (DHFR) from murine L1210 leukemia cells

Assay [10] has as its target T2, Dihydrofolate reductase (Mus musculus, UniProt P00375).
T2 sequence (P00375 whole entry): T1 sequence (whole entry)
Kind of assay: biochemical.
Description: Compound was tested for its inhibitory concentration to inhibit the enzyme Dihydro Folate Reductase (DHFR) from murine L1210 leukemia cells.

In assay [11] the test system is Mus musculus. In words: Increase in life span of mice with L1210 leukemia cells at a dose of 40 mg/kg. It is filed as functional.
The test system of assay [12] is L1210. Kind of assay: Compound was tested for its inhibitory concentration to inhibit the growth of wild type L1210 cells and a subline (L1210 / R81). In kind it is functional, cell-based. The following applies: Mus musculus.
For assay [13], the species on record is Homo sapiens. Kind of assay: Compound was tested for its inhibitory concentration against human leukemic lymphoblasts (CEM Cells). The conditions noted are these: CCRF-CEM. It is filed as functional.
Assay [14] addresses T2, Dihydrofolate reductase. In words: Compound was tested for its inhibitory concentration to inhibit the enzyme Dihydro Folate Reductase ( DHFR ) from murine L1210 leukemia cells. It is filed as cell-based.
Assay [15] relates to L1210. In words: Compound was tested for its inhibitory concentration to inhibit the growth of wild type L1210 cells and a subline ( L1210 / R81 ). In kind it is functional, cell-based. The following applies: Mus musculus.
For assay [16], the system named is Mus musculus. Kind of assay: Increase in life span of mice with L1210 leukemia cells at a dose of 80 mg/kg; Toxic. It is filed as functional, organism-based. Further details: dose 80 mg/kg.
Assay [17] concerns Mus musculus. Kind of assay: Median Survival days of mice infected with L1210 leukemia cells at dose 70 mg/kg relative to that of 10 days for control; Toxic. In kind it is functional, organism-based. Further details: dose 70 mg/kg.
For assay [18], the species on record is Mus musculus. Kind of assay: Compound was tested against weight change in mice with L1210 leukemia cells on 10 th Day at Dose 60 mg / kg. The conditions noted are these: at 60 mg/kg.
The subject of assay [19] is Mus musculus. In words: Median Survival days of mice infected with L1210 leukemia cells at dose 70 mg/kg relative to that of 10 days for control. In kind it is functional.
The species entered for assay [20] is Mus musculus. In words: Compound was tested against weight change in mice with L1210 leukemia cells on 10 th Day at Dose 50 mg / kg. The conditions noted are these: at 50 mg/kg.
Assay [21] is filed under the species Mus musculus. In words: Compound was tested against weight change in mice with L1210 leukemia cells on 10 th Day at Dose 70 mg / kg. The conditions noted are these: at 70 mg/kg.
Assay [22] deals with Mus musculus. Kind of assay: Median Survival days of mice infected with L1210 leukemia cells at dose 50 mg/kg relative to that of 10 days for control. It is filed as functional.
The test system of assay [23] is Mus musculus. Kind of assay: Median Survival days of mice infected with L1210 leukemia cells at dose 60 mg/kg relative to that of 10 days for control. It is filed as functional.
Assay [24] relates to Mus musculus. In words: Increase in life span of mice with L1210 leukemia cells at a dose of 50 mg/kg. In kind it is functional.
The species named for assay [25] is Homo sapiens. Kind of assay: Compound was tested for its inhibitory concentration against human leukemic lymphoblasts (CEM Cells) and a resistant subline (CEM / MTX); Mean of two assays. It is filed as functional. The conditions noted are these: CCRF-CEM.
Assay [26] is filed under the species Mus musculus. In words: Compound was tested against weight change in mice with L1210 leukemia cells on 7 th Day at Dose 10 mg / kg. In kind it is functional. The conditions noted are these: at 10 mg/kg.
Assay [27] has as its system Mus musculus. Kind of assay: Increase in life span of mice with L1210 leukemia cells at a dose of 7.5 mg/kg in exp 2. It is filed as functional.
For assay [28], the system named is Mus musculus. In words: Median Survival days of mice infected with L1210 leukemia cells at dose 10 mg/kg relative to that of 10 days for control in expt 2. It is filed as functional.
Assay [29] relates to Mus musculus. In words: Median Survival days of mice infected with L1210 leukemia cells at dose 20 mg/kg relative to that of 9 days for control in expt 1. In kind it is functional.
Assay [30] concerns Mus musculus. Kind of assay: Median Survival days of mice infected with L1210 leukemia cells at dose 7.5 mg/kg relative to that of 10 days for control in expt 2. It is filed as functional.
For assay [31], the species on record is Mus musculus. In words: Compound was tested against weight change in mice with L1210 leukemia cells on 10 th Day at Dose 20 mg / kg. The conditions noted are these: at 20 mg/kg.
Assay [32] relates to Mus musculus. In words: Increase in life span of mice with L1210 leukemia cells at a dose of 15 mg/kg in exp 2. In kind it is functional.
For assay [33], the species on record is Homo sapiens. In words: Compound was tested for its inhibitory concentration against human leukemic lymphoblasts (CEM Cells); Mean of two assays. It is filed as functional. The following applies: CCRF-CEM.
In assay [34] the test system is Mus musculus. Kind of assay: Increase in life span of mice with L1210 leukemia cells at a dose of 10 mg/kg in exp 2. In kind it is functional.
For assay [35], the species on record is Mus musculus. Kind of assay: Compound was tested against weight change in mice with L1210 leukemia cells on 10 th Day at Dose 7.5 mg / kg. The conditions noted are these: at 7.5 mg/kg.
The species entered for assay [36] is Mus musculus. In words: Compound was tested against weight change in mice with L1210 leukemia cells on 7 th Day at Dose 15 mg / kg. In kind it is functional. The following applies: at 15 mg/kg.
For assay [37], the system named is Mus musculus. In words: Median Survival days of mice infected with L1210 leukemia cells at dose 15 mg/kg relative to that of 10 days for control in expt 2. In kind it is functional.
The subject of assay [38] is Mus musculus. In words: Median Survival days of mice infected with L1210 leukemia cells at dose 10 mg/kg relative to that of 9 days for control in expt 1. In kind it is functional.

“And” between values parts separate entries of the source, which are not always exact repeats. Equal entries are not always repeated.

Consider `Nc1nc(N)c2nc(CNc3ccc(C(=O)NC(CCC(=O)N[C@]45C[C@H]6C[C@H](C[C@H](C6)C4)C5)C(=O)O)cc3)cnc2n1` (some centres not stated), for which the Survival worked out at 10 days in the assay on Mus musculus [1], 9 days in the assay on Mus musculus [4] and 8 days in the assay on Mus musculus [8]. The Weight change in the assay listed under Mus musculus [2] was found to be 17%. Further, the IC50 was determined as 16000 nM in the assay listed under Homo sapiens [3]; 680 nM with L1210 [6] (Mus musculus, L1210); 510 nM in the assay on L1210 [6] (l1210); 100 nM against Dihydrofolate reductase [10]; 25000 nM with L1210 [12]; 4500 nM in the assay listed under Homo sapiens [13]. Besides, the ILS at 80 mg/kg in the assay with Mus musculus [5] stood at 22%. Further, the ILS at 20 mg/kg in the assay on Mus musculus [7] was -11%. In [9], this compound registered an IC50/[E] of 2.5. The ILS at 40 mg/kg in the assay on Mus musculus [11] came to 0%.
In the case of `CN(Cc1cnc2nc(N)nc(N)c2n1)c1ccc(C(=O)NC(CCC(=O)Nc2ccc(O)c(O)c2)C(=O)O)cc1` (configuration not stated), the IC50 in the assay on L1210 [6] (l1210) is 30 nM and 8.4 nM; against Dihydrofolate reductase [14], 31 nM; with L1210 [15] it was 38000 nM.
Consider `Nc1nc(N)c2nc(CNc3ccc(C(=O)NC(CCC(=O)NCc4ccc(Cl)c(Cl)c4)C(=O)O)cc3)cnc2n1` (configuration not stated), for which the Weight change in the assay listed under Mus musculus [2] is recorded as -16%; in the assay filed under Mus musculus [18], 0%; in the assay filed under Mus musculus [20], 2%; in the assay filed under Mus musculus [21] it was -3%. In addition, the ILS entry with Mus musculus [16] was “Toxic”. In addition, the Survival result in the assay on Mus musculus [17] was “Toxic”; in the assay on Mus musculus [19] it was 21 days; with Mus musculus [22] it was 15 days; with Mus musculus [23] it was 17 days. Further, the ILS at 80 mg/kg in the assay with Mus musculus [5] stood at 50%. For the same compound, the IC50 in the assay on L1210 [6] (Mus musculus, L1210) is 46 nM; in the assay on L1210 [6] (l1210), 34 nM; at Dihydrofolate reductase [10] it was 130 nM; with L1210 [12], 32000 nM. Moreover, the IC50/[E] in assay [9] came to 3.3. For the same compound, in the assay with Mus musculus [24], the ILS at 50 mg/kg is 70%.
In the case of `Nc1nc(N)c2nc(CNc3ccc(C(=O)NC(CCC(=O)Nc4ccccc4)C(=O)O)cc3)cnc2n1` (configuration not stated), the IC50 in the assay filed under Homo sapiens [25] was found to be 4700 nM; with L1210 [6] (Mus musculus, L1210), 3.5 nM; with L1210 [6] (l1210), 3.6 nM; in the assay filed under Homo sapiens [33] it was 180 nM; on Dihydrofolate reductase [10], 60 nM; with L1210 [12] it was 10000 nM. In addition, the Weight change in the assay filed under Mus musculus [26] is 17% and 6%; in the assay listed under Mus musculus [31], 0%; in the assay listed under Mus musculus [35] it was 4%; in the assay listed under Mus musculus [36], 2%. For the same compound, the ILS at 7.5 mg/kg in the assay on Mus musculus [27] was determined as 30%. For the same compound, the Survival with Mus musculus [28] was determined as 15 days; with Mus musculus [29], 12 days; with Mus musculus [30], 13 days; in the assay with Mus musculus [37] it was 13 days; in the assay on Mus musculus [38], 12 days. Moreover, the ILS at 15 mg/kg in the assay with Mus musculus [32] amounted to 30%. The ILS at 10 mg/kg in the assay with Mus musculus [34] came to 50%. In assay [9], the IC50/[E] was 1.5.
